According to patent US20140031427A1, “COMBINATIONS OF ADAPALENE AND BENZOYL PEROXIDE FOR TREATING ACNE LESIONS” (GALDERMA RESEARCH & DEVELOPMENT, priority 2006, published 2014):
Where “and” joins values, the source holds several entries; their conditions need not be identical. Equal values may be shown once.

Key:
[1] = Pooled analysis of three adapalene-BPO clinical studies: safety (adverse events, local facial tolerability); type: in vivo, human; conditions: 12 weeks, safety population; adapalene 0.1%, BPO 2.5%
Procedure: (§1) Three multicenter, double-blind, randomized and controlled studies on the efficacy and safety of adapalene-BPO were conducted in 157 centers in the U.S, Puerto Rico, Canada, Germany, Poland and Hungary.^19-21 Patients were randomized to receive adapalene 0.1%-BPO 2.5% (Epiduo®, Galderma Laboratories), adapalene 0.1%, BPO 2.5% or vehicle once daily in the evening for 12 weeks. Adapalene and BPO used in the studies were formulated in the same gel vehicle as adapalene-BPO, instead of as the respective commercial products (Differin® and Benzac®, Galderma Laboratories). Efficacy and safety assessments were performed at each study visit, occurred at baseline, weeks 1, 2, 4, 8 and 12.
Safety of the treatments was evaluated through reporting of adverse events (AE) and assessments of local facial tolerability. At each study visit, the investigators rated signs of erythema, scaling, dryness and stinging/burning on a scale from 0 (none) to 3 (severe).
(§2) Data from the three studies were pooled and analyzed. Efficacy was evaluated in the intent-to-treat (ITT) population, which included all patients who were randomized and dispensed study medicine. Safety was assessed in the safety population, which included all patients who were randomized and treated at least once.

TPA-induced ear edema = assay: Anti-inflammatory evaluation in TPA-induced ear oedema model; type: in vivo, Balb/c mice; conditions: T+6 hours
Procedure: The study was carried out with 45 (5 par groups) female 9 weeks aged Balb/c ByJIc mice.
The Edema was induced by a single application of 20 μl of TPA dissolved in acetone at 0.01%.
The treatment was administrated by single topical application of tested compounds dissolved in TPA at 0.01% (groups 3, 4, 5, 6 and 7) and dissolved in TPA 0.01%+BPO (groups 8, 9 and 10).
The treatments activity was measured by inflammation evaluation with ear thickness at T+6 hours.

acne lesions = assay: Clinical study of topical gel combining adapalene + BPO vs monads and vehicle, 517 patients, 12 weeks; type: in vivo, human; conditions: for reduction in lesions: all lesions, week 12, rounded values in text; for Degree of success / Progress of the lesions (as median absolute numbers): Number of inflammatory lesions / Progress of the lesions (as median absolute numbers): Number of non-inflammatory lesions / Progress of the lesions (as median absolute numbers): Total number of lesions / Progress of the lesions (median percentages): Number of inflammatory lesions / Progress of the lesions (median percentages): Number of non-inflammatory lesions / Progress of the lesions (median percentages): Total number of lesions: week 12, ITT, adapalene 0.1%, BPO 2.5%; for Degree of success: % patients clear or almost clear, gels once a day
Procedure: A clinical study for confirmation of efficacy was performed for a topical gel combining adapalene+benzoyl peroxide (BPO). This gel has the following formulation (expressed as % weight/total weight): The clinical study was a multi-center, randomized, double-blind study in parallel groups, to evaluate the tolerance and the efficacy of the above formulation, in comparison with its own individual active substances placed at the same doses in gels of the same formula as that of the fixed combination (individual formulae referred to as “monads”) and in comparison with the gel vehicle (placebo formula): adapalene gel (0.1%), BPO gel (2.5%) and vehicle gel. All the treatments were applied once a day for 12 weeks, to 517 patients suffering from acne. The main efficacy criteria were: the degree of success, defined as the percentage of patients considered as being “clear”, i.e., the patient has no more acne lesions (neither comedones nor inflammatory lesions), reflecting an improvement in the patient's clinical condition, or “almost clear” on the evaluation scale; the reduction of the percentage of inflammatory and non-inflammatory lesions after 12 weeks of treatment.

[2] = even in the presence of light; cited from earlier work
acne vulgaris lesions = assay: Pooled analysis of three adapalene-BPO clinical studies (3855 patients): efficacy and synergy; type: in vivo, human; conditions: adapalene 0.1%, BPO 2.5%; for net effect (active minus vehicle), total lesions: week 1; for success rate: week 12, % patients with IGA clear or almost clear
Procedure: as §1
Eligible patients were 12 years or older with 20 to 50 inflammatory lesions (IL), 30 to 100 non-inflammatory lesions (NIL), no cysts and no more than 1 nodule on the face. […] Lesion counts were performed on the face only excluding the nose. Specified washout periods were required for patients taking certain topical and systemic treatments. Patients were excluded if they received systemic acne treatment or had dermatological conditions requiring interfering treatments. Women were excluded if they were pregnant, nursing, or planning a pregnancy. Men were excluded if they had facial hair that would interfere with assessments.
IGA was evaluated on a scale from 0 (clear: residual hyperpigmentation and erythema may be present) to 4 (severe: entire face is involved, covered with comedones, numerous papules and pustules, and few nodules and cysts).
as §2
Efficacy was evaluated by the Cochran-Mantel-Haenzsel (CMH) test, using general association for success rate and row mean differences by relative to identified distribution (RIDIT) transformed scores for percent lesion change. All tests were 2-sided.
Synergy was defined as the efficacy of combination (adapalene-BPO) greater than the sum of efficacy of individual components (adapalene alone and BPO alone). We took into account the vehicle effect by deducting it from the effect of treatments:^25
Net effect of active agent=effect of active agent−effect of vehicle Synergy=Net effect of adapalene-BPO−(Net effect of adapalene+Net effect of BPO)>0
The degree of synergy was evaluated based on the contribution of synergy to efficacy (net effect) of adapalene-BPO:
Degree of synergy(%)=(synergy/Net effect of adapalene-BPO)×100

[3] = Adapalene at 0.1% alone in TPA 0.01%
[4] = BPO at 2.5% (alone or with adapalene at 0.1%) in TPA 0.01%
[5] = BPO at 5% (alone or with adapalene at 0.1%) in TPA 0.01%
[6] = BPO at 10% (alone or with adapalene at 0.1%) in TPA 0.01%

| Compound | percentage of patients who experienced treatment-related AEs [1] [%] | reduction in lesions (acne lesions) [%] | Degree of success (acne lesions) | Progress of the lesions (as median absolute numbers): Number of inflammatory lesions (acne lesions) | Progress of the lesions (as median absolute numbers): Number of non-inflammatory lesions (acne lesions) | Progress of the lesions (as median absolute numbers): Total number of lesions (acne lesions) | Progress of the lesions (median percentages): Number of inflammatory lesions (acne lesions) [%] | Progress of the lesions (median percentages): Number of non-inflammatory lesions (acne lesions) [%] | Progress of the lesions (median percentages): Total number of lesions (acne lesions) [%] | net effect (active minus vehicle), total lesions (acne vulgaris lesions) [%] | success rate (acne vulgaris lesions) [%] | also measured |
| --- | --- | --- | --- | --- | --- | --- | --- | --- | --- | --- | --- | --- |
| COc1ccc(-c2ccc3cc(C(=O)O)ccc3c2)cc1C12CC3CC(CC(C3)C1)C2 [Adapalene, 6-[3-(1-Adamantyl)-4-methoxyphenyl]-2-naphthoic acid] | 15.3 | 35 | 15.5% | −13.0 | −17.0 | −29.0 | −45.7 | −33.3 | −35.4 | 1.4 | 20.0 | Ear edema Mean (TPA-induced ear edema; [3]): 23.40; Inhibition vs TPA (%) (TPA-induced ear edema; [3]): 13% and 12.7%; Degree of success (acne lesions; listed as adapalene): 16%; stability when combined with BPO [2]: remains stable |
| O=C(OOC(=O)c1ccccc1)c1ccccc1 [BPO, benzoyl peroxide] | 8.5 | 36 | 15% and 15.4% | −13.0 | −16.0 | −27 | −43.6 | −36.4 | −35.6 | 2.4 | 23.1 | Ear edema Mean (TPA-induced ear edema; [4]): 22.40; Inhibition vs TPA (%) (TPA-induced ear edema; [4]): 16% and 16.4%; Ear edema Mean (TPA-induced ear edema; [5]): 20.40; Inhibition vs TPA (%) (TPA-induced ear edema; [5]): 24% and 23.9%; Ear edema Mean (TPA-induced ear edema; [6]): 16.20; Inhibition vs TPA (%) (TPA-induced ear edema; [6]): 40% and 39.6% |
